Read-outs that look alike come from different tables or passages of the source.
Columns and labels:
[1] = biological target: T1, Class A beta-lactamase, K. pneumoniae ATCC 700603 (SHV 18) (Klebsiella pneumoniae, UniProt P0AD64, E235K/G234A/R39S); assay: biochemical
T1 construct: preincubated mixture of crude enzyme and the agents; endogenous in cells; host or cells: K. pneumoniae ATCC 700603
Outline: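 Crude enzyme preincubated with inhibitor 10 min at 37 °C, then nitrocefin (100 uM) added for 5 min. Absorbance read at 485 nm; IC50 obtained from sigmoidal dose-response fit of absorbance versus concentration.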

[2] = system: E. coli M50; assay: Zone of inhibition, compound alone and in combination with ceftazidime (agar well); format: cell-based; settings: Escherichia coli, M50, E. coli M50, read-out: Diameter of Zone of Inhibition; for zone of inhibition at 0.25 µg/disc: 0.25 μg/well; for zone of inhibition at 0.5 µg/disc: 0.5 μg/well; for zone of inhibition at 1 µg/disc: 1 μg/well
Procedure: (§1) Determination of antibacterial activity of combinations according to invention: In a typical experiment, two sets of plates containing growth media (Molten Mueller Hilton Agar) and bacterial strains were prepared. One set of plates was taken as control (without ceftazidime) and other set contained ceftazidime. The media was allowed to solidify and wells were punched later. A two-fold serial dilution range of each of the compounds according to invention was prepared and 50 μl of each of the dilution was added into the punched well. […] The Table 5 provides the antibacterial activity of the combination comprising compounds according to invention and ceftazidime.

[3] = system: E. coli NCTC 13353; assay: as above; format: cell-based; settings: Escherichia coli, NCTC13353, E. coli NCTC 13353, read-out: Diameter of Zone of Inhibition; for zone of inhibition at 0.25 µg/disc: 0.25 μg/well; for zone of inhibition at 0.5 µg/disc: 0.5 μg/well; for zone of inhibition at 1 µg/disc: 1 μg/well
Procedure: as §1

[4] = Compound + Ceftazidime (10 μg/ml)

T1 sequence (P0AD64 22-286 R39S/G234A/E235K): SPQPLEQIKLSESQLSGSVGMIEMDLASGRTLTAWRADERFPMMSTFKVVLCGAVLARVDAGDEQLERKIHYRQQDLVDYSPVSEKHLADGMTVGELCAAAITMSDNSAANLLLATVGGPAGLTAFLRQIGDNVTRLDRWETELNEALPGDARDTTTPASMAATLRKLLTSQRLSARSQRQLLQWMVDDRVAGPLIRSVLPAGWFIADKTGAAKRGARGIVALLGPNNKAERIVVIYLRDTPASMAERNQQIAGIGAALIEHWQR

| SMILES | IC50 [1] [nM] | zone of inhibition at 0.25 µg/disc [2, 4] [mm] | zone of inhibition at 0.5 µg/disc [2, 4] [mm] | zone of inhibition at 1 µg/disc [2, 4] [mm] | zone of inhibition at […] [2, 4] [mm] | zone of inhibition at 0.25 µg/disc ([2]; Compound alone) [mm] | zone of inhibition at 0.5 µg/disc ([2]; Compound alone) [mm] | zone of inhibition at 1 µg/disc ([2]; Compound alone) [mm] | zone of inhibition at 0.25 µg/disc [3, 4] [mm] | zone of inhibition at 0.5 µg/disc [3, 4] [mm] | zone of inhibition at 1 µg/disc [3, 4] [mm] | zone of inhibition at […] [3, 4] [mm] | zone of inhibition at 0.25 µg/disc ([3]; Compound alone) [mm] | zone of inhibition at 0.5 µg/disc ([3]; Compound alone) [mm] | zone of inhibition at 1 µg/disc ([3]; Compound alone) [mm] |
| --- | --- | --- | --- | --- | --- | --- | --- | --- | --- | --- | --- | --- | --- | --- | --- |
| O=C(Cc1ccc(O)cc1)NNC(=O)[C@@H]1CC[C@@H]2CN1C(=O)N2OS(=O)(=O)[O-].[Na+] [Example 1, Sodium Salt of (2S,5R)-Sulfuric Acid mono-[2-(N′-(4-hydroxyphenyl-acetyl)-hydrazinocarbonyl)-7-oxo-1,6-diaza-bicyclo[3.2.1]oct-6-yl]ester] | 103 | 16 | 19 | 22 | 13 | 12 | 13.5 | 16 | 18 | 21 | 25 | 16 | 14.5 | 15.5 | 17 |
| NCCOc1ccccc1CC(=O)NNC(=O)[C@@H]1CC[C@@H]2CN1C(=O)N2OS(=O)(=O)O [Example 2, (2S,5R)-Sulfuric Acid mono-[2-(N′-{2-[2-(2-amino-ethoxy)-phenyl]-acetyl}-hydrazinocarbonyl)-7-oxo-1,6-diaza-bicyclo[3.2.1]oct-6-yl]ester] | 119 | 13 | 16.5 | 18.5 | 10 | 10 | 14 | 16 | 21 | 24 | 28 | 17 | 11 | 14 | 16 |

Reference: US9822115B2, “Nitrogen containing compounds and their use as antibacterial agents” (WOCKHARDT LIMITED, priority 2014, dated 2017)
